The values that follow come from patent US9757350B2, “Small molecule inhibitors of replication protein A that also act synergistically with cisplatin” (Indiana University Research and Technology Corp., priority 2010, dated 2017).

Where two headings read alike, the source gives them in different places.

One assay has as its target T1, SpPot1(DBD) (Schizosaccharomyces pombe, UniProt O13988).
T1 construct: the Schizosaccharomyces pombe Pot1(DBD) domain (11) were studied
T1 sequence (O13988 1-389 limits assumed): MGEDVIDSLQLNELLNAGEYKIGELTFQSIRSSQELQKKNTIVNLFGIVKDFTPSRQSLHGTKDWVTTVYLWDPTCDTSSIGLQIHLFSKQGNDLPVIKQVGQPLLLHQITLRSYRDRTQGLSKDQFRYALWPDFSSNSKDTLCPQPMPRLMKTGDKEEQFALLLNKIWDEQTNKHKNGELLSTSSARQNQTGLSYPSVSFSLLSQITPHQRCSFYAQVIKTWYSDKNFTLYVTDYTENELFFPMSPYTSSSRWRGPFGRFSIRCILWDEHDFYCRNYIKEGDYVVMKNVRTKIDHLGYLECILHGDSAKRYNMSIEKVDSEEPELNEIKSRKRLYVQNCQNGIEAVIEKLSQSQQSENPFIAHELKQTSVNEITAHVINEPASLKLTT
The experiment in a line: SpPot1(DBD) ssDNA binding. Particulars: protein pre-incubated with SMI. The procedure:
In order to study the specificity of the CheSS19, and MCI13E/F compounds, their effects on two ssDNA binding proteins which use OB-folds for recognition and binding of ssDNA, E. coli SSB (6) and the Schizosaccharomyces pombe Pot1(DBD) domain (11) were studied. The EcSSB protein is a non-sequence-specific ssDNA binding protein, whereas the SpPot1(DBD) protein is a telomere-specific, ssDNA binding protein. In these experiments, protein was pre-incubated with the SMIs, as was done for the RPA experiments, prior to addition of radiolabeled ssDNA to the reactions.

A further assay relates to H1299 cells. The experiment in a line: CCK-8 cell viability assay, H1299. Format: cell-based. The procedure: (§1) Referring now to FIG. 13A. Cell Viability and Apoptosis of Ovarian and p53 null Lung Cancer Cell Lines. A) Ovarian cancer cell line A2780 and the p53 null lung cancer cell line, H1299, were treated with log dosing of MCI13E and viability analyzed via CCK-8 metabolic assay as described in Methods. Data is presented as cell survival which was determined as a percent of the untreated control cells and represents the average and standard deviation of triplicate experiments Referring now to FIG. 13B.
(§2) Ovarian cancer cell line, A2780, cells are difficult to use for crystal violet analysis due to their enhanced sensitivity to treatment. Therefore, the cell counting kit-8 (CCK) was used to determine the viability of A2780 cells in addition to the p53 null lung cancer cell line H1299, following a 24 hour treatment with log dosing of SMI. Cells were plated (1×10^5) in 24-well dishes and treated with inhibitor after 24 hours. After treatment media was aspirated and 1 ml of DMEM was added in addition to 100 μL of CCK-8 solution. Absorbance at 450 nm was measured over 4 hours in a SpectraMax M5 plate reader and values are presented as the percent untreated control at the two hour time point for three separate plate replicates each containing three assays per plate.
(In general: Tetrazolium assays rely on reduction of a dye to a coloured formazan, in cell work by metabolically active cells.)

Another assay has as its system p21. The experiment in a line: Quantitative real-time PCR of p21 mRNA. Type of assay: cell-based. Particulars: A549, versus untreated control. As to the method:
Real-Time PCR—A549 cells were plated in 10 cm dishes at 1.5×10^6, allowed to adhere, and treated for 24-48 hours with cisplatin or SMIs (5 μM). Referring now to FIG. 16B, Western blot of cells treated sequentially. For sequential treatment, A549 cells were exposed to cisplatin for 24 hours followed by the addition of SMIs for another 24 hours as above. Referring now to FIG. 16A, A549 cells were treated sequentially or concurrently with cisplatin (5 μM) and MCI13E or MCI13F for 24 total hours. Lysates were probed for p53-ser15-phosphorylation or phosphorylated-ATM. GAPDH was probed as a loading control. Concurrently treated cells were incubated simultaneously with both cisplatin and MCIs for 24 hours. RNA was extracted using RNeasy minikit (Qiagen, Germantown, Md.) per manufacturer's protocol. cDNA was generated using Applied Biosystem's (ABI) High Capacity RNA-to-cDNA kit. Validated gene primer/probe sets, also from ABI, were used for Quantitative Real Time-PCR. ABI's ΔΔCT Relative Quantification methodology was used for the analyses (applied Biosystems). Data were normalized to the housekeeping gene GAPDH and calibrated to the mock treated samples. Results presented are the average of two separate cell treatments/RNA isolations with duplicate Taqman Assays per RNA sample set.
Referring now to FIG. 15A. Plot of Quantitative Real Time PCR analyses of mRNA expression changes of A549 cells treated with MCI13E, MCI13F and Cisplatin. Data represents the average of four separate Q-RT PCR Assays. Genes of interest were normalized to GAPDH transcript levels, and are presented as fold changes relative to untreated cell samples. Cisplatin treatment increases transcription of DDB2 (A). Referring now to FIG. 15B. Bar graph of P21/GAPDH measured in cells subjected to different treatment schemes. Referring now to FIG. 15C. Bar graph of XPC/GAPDH measured under different treatment regimes XPC Concurrent MCI/Cisplatin treated cells show a decrease in gene transcription when compared to cells treated with Cisplatin alone (24 hour).

For assay [1], the target named is T2, full-length heterotrimeric RPA (Homo sapiens, UniProt P27694).
T2 construct: Human full-length, un-tagged heterotrimeric RPA (RPA) was purified as previously describe; made in house
T2 sequence (P27694 whole entry): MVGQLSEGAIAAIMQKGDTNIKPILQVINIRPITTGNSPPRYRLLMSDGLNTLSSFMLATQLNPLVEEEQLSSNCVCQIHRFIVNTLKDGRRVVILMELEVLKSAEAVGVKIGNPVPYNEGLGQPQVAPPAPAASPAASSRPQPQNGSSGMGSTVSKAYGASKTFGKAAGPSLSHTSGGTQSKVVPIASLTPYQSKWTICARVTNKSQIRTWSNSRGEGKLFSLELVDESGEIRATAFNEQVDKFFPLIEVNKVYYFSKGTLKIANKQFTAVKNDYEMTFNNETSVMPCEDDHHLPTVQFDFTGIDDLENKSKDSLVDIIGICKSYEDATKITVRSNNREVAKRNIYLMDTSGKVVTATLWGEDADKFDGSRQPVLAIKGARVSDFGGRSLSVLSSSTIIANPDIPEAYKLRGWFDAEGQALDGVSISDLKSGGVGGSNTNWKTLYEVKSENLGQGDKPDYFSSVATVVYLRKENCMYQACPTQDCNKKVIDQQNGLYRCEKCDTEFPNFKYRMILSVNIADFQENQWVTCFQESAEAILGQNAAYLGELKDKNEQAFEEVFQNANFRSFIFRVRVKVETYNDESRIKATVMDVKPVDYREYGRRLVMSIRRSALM
T2 sequence (P15927 whole entry partner): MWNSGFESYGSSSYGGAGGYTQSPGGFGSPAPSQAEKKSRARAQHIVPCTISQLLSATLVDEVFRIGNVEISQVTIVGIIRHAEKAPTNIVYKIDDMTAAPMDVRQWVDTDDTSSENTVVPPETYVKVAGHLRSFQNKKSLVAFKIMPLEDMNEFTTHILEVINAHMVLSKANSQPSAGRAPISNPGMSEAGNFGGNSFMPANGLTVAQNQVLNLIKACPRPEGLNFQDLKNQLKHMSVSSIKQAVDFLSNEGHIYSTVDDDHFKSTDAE
T2 sequence (P35244 whole entry partner): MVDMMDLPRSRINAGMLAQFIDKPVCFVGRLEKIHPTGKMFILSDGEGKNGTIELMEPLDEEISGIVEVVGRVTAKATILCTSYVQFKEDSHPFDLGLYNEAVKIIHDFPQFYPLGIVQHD
The assay is described as follows: Reversibility of full-length RPA inhibition: dialysis, then EMSA. Particulars: overnight dialysis, then EMSA with 34-base DNA. Type of assay: binding. As to the method:
Considering the differential inhibition observed between the anhydride and halo esters with respect to specificity, experiments were carried out to determine if the isoborneol halo-esters inhibited full-length RPA in an irreversible fashion. Full-length RPA was mixed with MCI13E or vehicle control and the reaction mixtures were then dialyzed overnight. Referring now to FIG. 5. Gel showing irreversible inactivation of full-length heterotrimeric RPA by MCI13E. Incubation of RPA with MCI13E, dialysis and recovery was performed as described for FIG. 3. DNA binding activity of the resulting protein was assessed by EMSA using a 5′-[^32P]-ss 34-base DNA as described in “Methods”. Lanes 1-4 pre-dialysis, lanes 5 and 6 post dialysis. […] In fact, the degree of inhibition was similar to that observed for the MCI13E treated RPA before dialysis (FIG. 5 lanes 3 and 4). […] This activity is consistent with MCI13E and F and their reaction with RPA serving as a pharmacodynamic marker of RPA inhibition or as a biomarker for RPA expression and activity.
In order to assess the reversibility of select SMIs, the indicated SMI was pre-incubated with RPA or the DBD-A/B construct for 30 minutes at room temperature. […] The resulting protein was recovered and concentration determined by Bradford analysis. […]
For orientation: In EMSA bound probe runs differently from free probe, usually more slowly.

The subject of another assay is A2780 cells. The assay is described as follows: CCK-8 cell viability assay, A2780. Format: cell-based. Particulars: 24 hours of treatment. The procedure: as §1, §2
The mark [2] stands for this setting: H1299, 24 hours after exposing the cells, read-out: IC50, cell viability.
Setting [3] is: H1299, read-out: IC50, cell viability (text to Table 3).

A word on the IC50: it is the midpoint of a concentration-inhibition curve. Regarding `CC1(C)C2CCC1(C)C(OC(=O)CI)C2` (racemic) [MCI13F, (+/−)-Isobornyl iodoacetate], the “Effect on SpPot1(DBD) ssDNA binding” value on SpPot1(DBD) is “no significant inhibition”. Besides, the half-maximal inhibitory concentration (IC50) is 500 nM in the assay with H1299 cells (setting [2]) and ~500 nM in the assay with H1299 cells (setting [3]). For the same molecule, the “p21 mRNA expression, single agent” value with p21 was “only slightly increases the expression level of p21”.
For `CC1(C)C2CCC1(C)C(OC(=O)CBr)C2` (racemic) [MCI13E, (+/−)-Isobornyl bromoacetate], in assay [1], the “Reversibility of full-length RPA inhibition” value is “inhibition was not reversed by dialysis”. The “Effect on SpPot1(DBD) ssDNA binding” value on SpPot1(DBD) was “no significant inhibition”. The IC50 was ~4000 nM with H1299 cells (H1299 (p53 null), 24 hours of treatment, CCK-8, read-out: IC50, cell viability); 500 nM in the assay with H1299 cells (setting [2]); ~500 nM with H1299 cells (setting [3]); ~1000 nM with A2780 cells. The “p21 mRNA expression, single agent” value with p21 was “only slightly increases the expression level of p21”.
